Each compound was assayed on Influenza A/WSN/33-Luciferase virus (assay: microbe, parasite or virus in culture). Settings: A549, 72 h, luciferase signal three days later, read-out: IC50 antiviral activity (Luciferase reporter assay).
Assay type: cell-based
`CN1CCN(CCCn2cccc(Nc3nn(-c4ccc(OC(F)(F)F)cc4)c(=O)c4c3CCC4)c2=O)CC1` [Example 48, 1-[[1-[3-(4-methylpiperazin-1-yl)propyl]-2-oxo-3-pyridyl]amino]-3-[4-(trifluoromethoxy)phenyl]-6,7-dihydro-5H-cyclopenta[d]pyridazin-4-one] was tested, and the IC50 was 18 nM. Work on `O=c1c(Nc2nn(-c3ccc(OC(F)(F)F)cc3)c(=O)c3c2CCC3)cccn1CCCO` [Example 49, 1-[[1-(3-hydroxypropyl)-2-oxo-3-pyridyl]amino]-3-[4-(trifluoromethoxy)phenyl]-6,7-dihydro-5H-cyclopenta[d]pyridazin-4-one] yielded an IC50 of 16 nM. For `CN(C)CCn1cncc(Nc2nn(-c3ccc(OC(F)(F)F)cc3)c(=O)c3c2CCC3)c1=O` [Example 50, 1-[[1-[2-(dimethylamino)ethyl]-6-oxo-pyrimidin-5-yl]amino]-3-[4-(trifluoromethoxy)phenyl]-6,7-dihydro-5H-cyclopenta[d]pyridazin-4-one], the IC50 was 28 nM. Work on `CCN(CC)CCn1cncc(Nc2nn(-c3ccc(OC(F)(F)F)cc3)c(=O)c3c2CCC3)c1=O` [Example 51, 1-[[1-[2-(diethylamino)ethyl]-6-oxo-pyrimidin-5-yl]amino]-3-[4-(trifluoromethoxy)phenyl]-6,7-dihydro-5H-cyclopenta[d]pyridazin-4-one] yielded an IC50 of 44 nM. In the case of `O=c1c(Nc2nn(-c3ccc(OC(F)(F)F)cc3)c(=O)c3c2CCC3)cncn1CCN1CCCC1` [Example 52, 1-[[6-oxo-1-(2-pyrrolidin-1-ylethyl)pyrimidin-5-yl]amino]-3-[4-(trifluoromethoxy)phenyl]-6,7-dihydro-5H-cyclopenta[d]pyridazin-4-one], the IC50 is reported as 62 nM. Compound `Cn1cccc(Nc2nn(-c3ccc(C(C)(C)C)cc3F)c(=O)c3c2CCC3)c1=O` [Example 53, 3-(4-tert-butyl-2-fluoro-phenyl)-1-[(1-methyl-2-oxo-3-pyridyl)amino]-6,7-dihydro-5H-cyclopenta[d]pyridazin-4-one] has an IC50 of 24 nM. `Cn1cccc(Nc2nn(-c3ccc(C(F)(F)F)cc3F)c(=O)c3c2CCC3)c1=O` [Example 54, 3-[2-fluoro-4-(trifluoromethyl)phenyl]-1-[(1-methyl-2-oxo-3-pyridyl)amino]-6,7-dihydro-5H-cyclopenta[d]pyridazin-4-one] was tested, and the IC50 was 52 nM. In the case of `CCOc1ccc(-n2nc(Nc3cccn(C)c3=O)c3c(c2=O)CCC3)cn1` [Example 55, 3-(6-ethoxy-3-pyridyl)-1-[(1-methyl-2-oxo-3-pyridyl)amino]-6,7-dihydro-5H-cyclopenta[d]pyridazin-4-one], the IC50 is reported as 303 nM. Compound `COc1ccc(-n2nc(Nc3cccn(C)c3=O)c3c(c2=O)CCC3)cn1` [Example 56, 3-(6-methoxy-3-pyridyl)-1-[(1-methyl-2-oxo-3-pyridyl)amino]-6,7-dihydro-5H-cyclopenta[d]pyridazin-4-one] has an IC50 of 278 nM. Compound `COc1ccc(-n2nc(Nc3cc(F)cn(C)c3=O)c3c(c2=O)CCC3)cn1` [Example 57, 1-[(5-fluoro-1-methyl-2-oxo-3-pyridyl)amino]-3-(6-methoxy-3-pyridyl)-6,7-dihydro-5H-cyclopenta[d]pyridazin-4-one] has an IC50 of 352 nM. `Cn1cccc(Nc2nn(-c3ccc(C(C)(C)C)nc3)c(=O)c3c2CCC3)c1=O` [Example 58, 3-(6-tert-butyl-3-pyridyl)-1-[(1-methyl-2-oxo-3-pyridyl)amino]-6,7-dihydro-5H-cyclopenta[d]pyridazin-4-one] was tested, and the IC50 was 17 nM. Work on `Cn1cccc(Nc2nn(-c3ccc(OC(F)F)cc3)c(=O)c3c2CCC3)c1=O` [Example 59, 3-[4-(difluoromethoxy)phenyl]-1-[(1-methyl-2-oxo-3-pyridyl)amino]-6,7-dihydro-5H-cyclopenta[d]pyridazin-4-one] yielded an IC50 of 137 nM. In the case of `Cn1cccc(Nc2nn(-c3ccc(C(F)(F)F)cc3)c(=O)c3c2CCC3)c1=O` [Example 60, 1-[(1-methyl-2-oxo-3-pyridyl)amino]-3-[4-(trifluoromethyl)phenyl]-6,7-dihydro-5H-cyclopenta[d]pyridazin-4-one], the IC50 is reported as 11 nM. Compound `Cn1cccc(Nc2nn(-c3ccc(OC(F)(F)F)cc3)c(=O)c3c2CC(C)(C)C3)c1=O` [Example 61, 6,6-dimethyl-1-[(1-methyl-2-oxo-3-pyridyl)amino]-3-[4-(trifluoromethoxy)phenyl]-5,7-dihydrocyclopenta[d]pyridazin-4-one] has an IC50 of 60 nM. Compound `Cn1cccc(Nc2nn(-c3ccc(OC(F)(F)F)cc3)c(=O)c3c2CCOC3)c1=O` [Example 62, 1-[(1-methyl-2-oxo-3-pyridyl)amino]-3-[4-(trifluoromethoxy)phenyl]-7,8-dihydro-5H-pyrano[3,4-d]pyridazin-4-one] has an IC50 of 186 nM. For `Cn1cccc(Nc2nn(-c3ccc(OC(F)(F)F)cc3)c(=O)c3c2COCC3)c1=O` [Example 63, 4-[(1-methyl-2-oxo-3-pyridyl)amino]-2-[4-(trifluoromethoxy)phenyl]-7,8-dihydro-5H-pyrano[3,4-d]pyridazin-1-one], the IC50 was 33 nM. In the case of `Cc1ccc(Nc2nn(-c3ccc(OC(F)(F)F)cc3)c(=O)c3ccccc23)c(=O)n1C` [Example 64, 4-[(1,6-dimethyl-2-oxo-3-pyridyl)amino]-2-[4-(trifluoromethoxy)phenyl]phthalazin-1-one], the IC50 is reported as 355 nM. For `Cc1ncc(Nc2nn(-c3ccc(OC(F)(F)F)cc3)c(=O)c3ccccc23)c(=O)[nH]1` [Example 65, 4-[(2-methyl-6-oxo-1H-pyrimidin-5-yl)amino]-2-[4-(trifluoromethoxy)phenyl]phthalazin-1-one], the IC50 was 405 nM. `Cn1cncc(Nc2nn(-c3ccc(OC(F)(F)F)cc3)c(=O)c3ccccc23)c1=O` [Example 66, 4-[(1-methyl-6-oxo-pyrimidin-5-yl)amino]-2-[4-(trifluoromethoxy)phenyl]phthalazin-1-one] gave an IC50 of 36 nM. `CCc1cc(Nc2nn(-c3ccc(OC(F)(F)F)cc3)c(=O)c3ccccc23)c(=O)n(C)c1` [Example 67, 4-[(5-ethyl-1-methyl-2-oxo-3-pyridyl)amino]-2-[4-(trifluoromethoxy)phenyl]phthalazin-1-one] showed an IC50 of 563 nM. Work on `Cc1ccc(Nc2nn(-c3ccc(OC(F)(F)F)cc3)c(=O)c3ccccc23)c(=O)[nH]1` [Example 68, 4-[(6-methyl-2-oxo-1H-pyridin-3-yl)amino]-2-[4-(trifluoromethoxy)phenyl]phthalazin-1-one] yielded an IC50 of 1710 nM. Work on `COC(=O)CCn1cccc(Nc2nn(-c3ccc(OC(F)(F)F)cc3)c(=O)c3ccccc23)c1=O` [Example 69, methyl 3-[2-oxo-3-[[4-oxo-3-[4-(trifluoromethoxy)phenyl]phthalazin-1-yl]amino]-1-pyridyl]propanoate] yielded an IC50 of 228 nM. Work on `CN(C)CCn1cccc(Nc2nn(-c3ccc(OC(F)(F)F)cc3)c(=O)c3ccccc23)c1=O` [Example 70, 4-[[1-[2-(dimethylamino)ethyl]-2-oxo-3-pyridyl]amino]-2-[4-(trifluoromethoxy)phenyl]phthalazin-1-one] yielded an IC50 of 19 nM. Compound `COCCn1cccc(Nc2nn(-c3ccc(OC(F)(F)F)cc3)c(=O)c3ccccc23)c1=O` [Example 71, 4-[[1-(2-methoxyethyl)-2-oxo-3-pyridyl]amino]-2-[4-(trifluoromethoxy)phenyl]phthalazin-1-one] has an IC50 of 54 nM. `CS(=O)(=O)CCn1cccc(Nc2nn(-c3ccc(OC(F)(F)F)cc3)c(=O)c3ccccc23)c1=O` [Example 72, 4-[[1-(2-methylsulfonylethyl)-2-oxo-3-pyridyl]amino]-2-[4-(trifluoromethoxy)phenyl]phthalazin-1-one] gave an IC50 of 24 nM. For `COC(=O)CCCn1cccc(Nc2nn(-c3ccc(OC(F)(F)F)cc3)c(=O)c3ccccc23)c1=O` [Example 73, methyl 4-[2-oxo-3-[[4-oxo-3-[4-(trifluoromethoxy)phenyl]phthalazin-1-yl]amino]-1-pyridyl]butanoate], the IC50 was 49 nM. With `NS(=O)(=O)CCCn1cccc(Nc2nn(-c3ccc(OC(F)(F)F)cc3)c(=O)c3ccccc23)c1=O` [Example 74, 3-[2-oxo-3-[[4-oxo-3-[4-(trifluoromethoxy)phenyl]phthalazin-1-yl]amino]-1-pyridyl]propane-1-sulfonamide] the IC50 was 34 nM. Compound `CN(C)S(=O)(=O)CCCn1cccc(Nc2nn(-c3ccc(OC(F)(F)F)cc3)c(=O)c3ccccc23)c1=O` [Example 75, N,N-dimethyl-3-[2-oxo-3-[[4-oxo-3-[4-(trifluoromethoxy)phenyl]phthalazin-1-yl]amino]-1-pyridyl]propane-1-sulfonamide] has an IC50 of 25 nM. In the case of `O=c1c(Nc2nn(-c3ccc(OC(F)(F)F)cc3)c(=O)c3ccccc23)cccn1CCN1CCOCC1` [Example 76, 4-[[1-(2-morpholinoethyl)-2-oxo-3-pyridyl]amino]-2-[4-(trifluoromethoxy)phenyl]phthalazin-1-one], the IC50 is reported as 34 nM. `O=c1c(Nc2nn(-c3ccc(OC(F)(F)F)cc3)c(=O)c3ccccc23)cccn1CCN1CC(O)(C(F)(F)F)C1` [Example 77, 4-[[1-[2-[3-hydroxy-3-(trifluoromethyl)azetidin-1-yl]ethyl]-2-oxo-3-pyridyl]amino]-2-[4-(trifluoromethoxy)phenyl]phthalazin-1-one] was tested, and the IC50 was 108 nM. `O=c1c(Nc2nn(-c3ccc(OC(F)(F)F)cc3)c(=O)c3ccccc23)cccn1CCN1CCC(O)C1` (stereo not shown) [Example 78, 4-[[1-[2-(3-hydroxypyrrolidin-1-yl)ethyl]-2-oxo-3-pyridyl]amino]-2-[4-(trifluoromethoxy)phenyl]phthalazin-1-one] gave an IC50 of 31 nM. With `COC(=O)[C@@H]1CCCN1CCn1cccc(Nc2nn(-c3ccc(OC(F)(F)F)cc3)c(=O)c3ccccc23)c1=O` [Example 79, methyl (2S)-1-[2-[2-oxo-3-[[4-oxo-3-[4-(trifluoromethoxy)phenyl]phthalazin-1-yl]amino]-1-pyridyl]ethyl]pyrrolidine-2-carboxylate] the IC50 was 32 nM. Work on `CN(C)CCn1cncc(Nc2nn(-c3ccc(OC(F)(F)F)cc3)c(=O)c3ccccc23)c1=O` [Example 80, 4-[[1-[2-(dimethylamino)ethyl]-6-oxo-pyrimidin-5-yl]amino]-2-[4-(trifluoromethoxy)phenyl]phthalazin-1-one] yielded an IC50 of 68 nM. Compound `CCc1ccc2c(=O)n(-c3ccc(OC(F)(F)F)cc3)nc(Nc3cccn(C)c3=O)c2c1` [Example 81, 6-ethyl-4-[(1-methyl-2-oxo-3-pyridyl)amino]-2-[4-(trifluoromethoxy)phenyl]phthalazin-1-one] has an IC50 of 465 nM.
